Laboratory results from paper PMC3474704 (Clinical cancer research : an official journal of the …, 2012).
Read-outs that look alike come from different tables or passages of the source.

Assays:
CHK2 = CHK2 (Homo sapiens, UniProt O96017); test: CHK2 IC50 determination; type: biochemical
IRAK 1 = IRAK 1 (Homo sapiens, UniProt P51617); test: Kinase profiling at 1 μM: IRAK 1; type: biochemical
TrKA = TrKA (Homo sapiens, UniProt P04629); test: Kinase profiling at 1 μM: TrKA; type: biochemical
RSK = test: Kinase profiling at 1 μM: RSK; type: biochemical, human
Aurora B = Aurora B (Homo sapiens, UniProt Q96GD4); test: Kinase profiling at 1 μM: Aurora B; type: biochemical
MAP4K = test: Kinase profiling at 1 μM: MAP4K; type: biochemical, human
CHK1 [1] = target: T1, CHK1 (Homo sapiens, UniProt O14757); test: Kinase profiling at 1 μM: CHK1; type: biochemical
T1 sequence (O14757 1-476): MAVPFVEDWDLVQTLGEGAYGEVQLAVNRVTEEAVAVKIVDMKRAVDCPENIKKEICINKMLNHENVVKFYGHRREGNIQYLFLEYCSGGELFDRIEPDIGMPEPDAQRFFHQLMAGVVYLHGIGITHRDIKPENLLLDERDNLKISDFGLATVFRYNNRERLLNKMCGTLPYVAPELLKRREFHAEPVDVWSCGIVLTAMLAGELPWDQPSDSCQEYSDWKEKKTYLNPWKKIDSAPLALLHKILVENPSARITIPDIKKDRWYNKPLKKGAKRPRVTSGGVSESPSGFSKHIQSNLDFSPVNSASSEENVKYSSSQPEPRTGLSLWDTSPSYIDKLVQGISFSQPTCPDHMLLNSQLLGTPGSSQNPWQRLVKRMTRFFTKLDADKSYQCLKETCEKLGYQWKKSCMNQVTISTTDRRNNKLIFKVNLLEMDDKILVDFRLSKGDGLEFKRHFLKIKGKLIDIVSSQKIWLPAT

CHK1 [2] = target: T1, CHK1; test: cell-based
CHK1 [3] = target: T1, CHK1; test: Cell-based ELISA for G2 checkpoint abrogation
CHK1 [4] = target: T1, CHK1; test: Cell-based ELISA for G2 checkpoint abrogation; remark: listed apart in the source
[5] = system: HT29 colon carcinoma cells; test: Cell cycle analysis; type: cell-based, human
[6] = system: SW620 colon carcinoma cell line; test: Cell cycle analysis; type: cell-based, human
[7] = Plasma pharmacokinetics in BALB/c mice; type: in vivo, mouse; details: for AUC0-∞ / peak plasma concentration: BALB/c mice
[8] = In vitro metabolism in male CD1 mouse microsomes; type: in vitro ADME; details: 10 μM, 30 minutes at 37°C, NADPH and UDPGA
HT29 xenografts = test: HT29 xenograft growth delay, combination with gemcitabine; type: in vivo, mouse
HT29 tumors = test: HT29 xenograft growth delay, combination with irinotecan; type: in vivo, mouse; details: for growth delay: HT29 tumors
SW620 xenografts = test: SW620 xenograft, combination with gemcitabine; type: in vivo, mouse; details: 75mg/kg p.o. with gemcitabine 100mg/kg i.v.
[9] = system: MYCN-driven neuroblastoma; test: Single agent activity in TH-MYCN transgenic mouse model of neuroblastoma; type: in vivo
[10] = system: S296 CHK1 autophosphorylation; test: Biomarker changes in HT29 xenografts; type: in vivo, mouse; details: 100 or 150mg/kg p.o. with gemcitabine 100mg/kg i.v., P<0.05
CDK1 [11] = target: T2, CDK1 (Homo sapiens, UniProt P06493); details: versus CHK1
CHK1 [12] = target: T1, CHK1; details: HT29
HT29 [13] = system: HT29
SW620 [14] = system: SW620
HT29 [15] = test: cells; details: Homo sapiens, HT-29, 96 h
SW620 [16] = test: cells; details: Homo sapiens, SW-620, 96 h
[17] = system: four human tumor cell lines; test: cells
recombinant human CHK1 = recombinant human CHK1 (Homo sapiens, UniProt O14757); test: biochemical
CDK1 [18] = target: T2, CDK1; test: biochemical
[19] = 0.5μM for 23h following etoposide 25μM × 1h
[20] = BALB/c, mouse, in vivo, po, 10 mg/kg

T2 sequence (P06493 whole entry, looked up): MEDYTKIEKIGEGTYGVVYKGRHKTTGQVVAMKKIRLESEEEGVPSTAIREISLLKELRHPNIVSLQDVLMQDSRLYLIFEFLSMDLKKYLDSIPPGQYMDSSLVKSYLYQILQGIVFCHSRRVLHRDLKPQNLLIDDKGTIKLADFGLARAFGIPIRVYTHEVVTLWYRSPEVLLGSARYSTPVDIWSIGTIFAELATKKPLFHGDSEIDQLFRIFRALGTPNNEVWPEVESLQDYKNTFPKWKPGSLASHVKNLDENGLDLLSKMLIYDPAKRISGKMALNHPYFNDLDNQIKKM
Sequence of CHK2 (O96017 whole entry): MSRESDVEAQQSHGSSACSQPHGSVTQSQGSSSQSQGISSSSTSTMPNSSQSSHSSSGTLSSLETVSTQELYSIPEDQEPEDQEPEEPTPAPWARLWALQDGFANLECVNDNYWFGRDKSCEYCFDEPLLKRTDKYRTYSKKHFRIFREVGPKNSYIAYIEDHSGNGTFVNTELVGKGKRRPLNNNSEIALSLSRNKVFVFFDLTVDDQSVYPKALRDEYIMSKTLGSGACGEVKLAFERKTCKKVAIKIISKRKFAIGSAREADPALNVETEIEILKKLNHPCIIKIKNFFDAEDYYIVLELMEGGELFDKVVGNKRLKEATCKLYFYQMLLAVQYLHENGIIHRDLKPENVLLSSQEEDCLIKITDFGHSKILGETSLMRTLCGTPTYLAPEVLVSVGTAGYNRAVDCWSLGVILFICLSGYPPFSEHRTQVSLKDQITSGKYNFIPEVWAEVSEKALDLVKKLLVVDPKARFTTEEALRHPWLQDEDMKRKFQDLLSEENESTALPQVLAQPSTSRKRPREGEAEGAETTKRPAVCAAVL
Sequence of Aurora B (Q96GD4 whole entry): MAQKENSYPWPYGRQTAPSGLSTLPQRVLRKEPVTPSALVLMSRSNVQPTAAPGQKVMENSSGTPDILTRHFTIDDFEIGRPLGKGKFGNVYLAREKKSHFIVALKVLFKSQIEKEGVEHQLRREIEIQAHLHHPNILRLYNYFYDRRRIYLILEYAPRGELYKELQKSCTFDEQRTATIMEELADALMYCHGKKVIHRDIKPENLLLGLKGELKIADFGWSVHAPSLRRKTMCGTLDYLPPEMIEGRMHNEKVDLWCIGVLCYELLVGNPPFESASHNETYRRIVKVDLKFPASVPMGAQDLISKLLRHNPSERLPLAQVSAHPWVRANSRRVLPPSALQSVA
Sequence of TrKA (P04629 33-796): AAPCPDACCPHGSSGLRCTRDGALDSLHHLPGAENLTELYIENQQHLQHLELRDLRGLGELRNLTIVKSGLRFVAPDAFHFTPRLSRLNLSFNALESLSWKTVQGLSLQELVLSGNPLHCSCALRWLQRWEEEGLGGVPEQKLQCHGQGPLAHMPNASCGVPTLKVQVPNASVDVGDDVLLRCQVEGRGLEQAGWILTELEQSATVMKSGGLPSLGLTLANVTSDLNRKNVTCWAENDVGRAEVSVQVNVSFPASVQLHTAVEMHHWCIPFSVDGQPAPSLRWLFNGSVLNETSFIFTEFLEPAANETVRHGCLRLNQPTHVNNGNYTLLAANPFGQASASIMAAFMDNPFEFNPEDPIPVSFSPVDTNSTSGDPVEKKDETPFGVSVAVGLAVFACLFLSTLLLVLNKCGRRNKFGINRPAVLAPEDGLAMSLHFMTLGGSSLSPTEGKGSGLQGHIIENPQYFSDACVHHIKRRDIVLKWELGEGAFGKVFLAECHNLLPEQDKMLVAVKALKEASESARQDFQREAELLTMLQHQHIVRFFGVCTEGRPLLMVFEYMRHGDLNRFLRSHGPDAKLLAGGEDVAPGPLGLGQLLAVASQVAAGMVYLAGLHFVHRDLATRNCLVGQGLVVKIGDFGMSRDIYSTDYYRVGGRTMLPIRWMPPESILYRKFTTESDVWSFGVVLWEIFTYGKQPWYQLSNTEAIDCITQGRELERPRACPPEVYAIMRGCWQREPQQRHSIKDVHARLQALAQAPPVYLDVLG
Sequence of IRAK 1 (P51617 whole entry): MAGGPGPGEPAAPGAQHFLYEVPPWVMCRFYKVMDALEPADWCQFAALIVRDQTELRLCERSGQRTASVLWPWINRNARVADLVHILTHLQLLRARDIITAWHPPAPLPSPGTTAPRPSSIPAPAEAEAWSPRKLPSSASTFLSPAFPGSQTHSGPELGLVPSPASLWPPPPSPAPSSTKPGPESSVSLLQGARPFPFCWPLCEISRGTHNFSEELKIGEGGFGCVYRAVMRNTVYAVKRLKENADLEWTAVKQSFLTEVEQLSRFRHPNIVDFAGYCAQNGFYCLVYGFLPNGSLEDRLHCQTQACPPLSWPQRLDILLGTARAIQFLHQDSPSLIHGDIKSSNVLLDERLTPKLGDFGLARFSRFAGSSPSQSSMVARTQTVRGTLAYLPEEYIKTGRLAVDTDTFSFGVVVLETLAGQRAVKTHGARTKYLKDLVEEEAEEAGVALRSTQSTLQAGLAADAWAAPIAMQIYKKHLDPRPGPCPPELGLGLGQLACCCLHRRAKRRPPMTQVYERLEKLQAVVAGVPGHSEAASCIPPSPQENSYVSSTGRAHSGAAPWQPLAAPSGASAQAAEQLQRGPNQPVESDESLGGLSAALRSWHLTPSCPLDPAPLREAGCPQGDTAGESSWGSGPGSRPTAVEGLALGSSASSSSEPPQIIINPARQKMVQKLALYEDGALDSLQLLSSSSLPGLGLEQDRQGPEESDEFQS

COc1cc(Nc2cnc(C#N)c(O[C@H](C)CN(C)C)n2)ncc1-c1cnn(C)c1 [CCT244747]
IC50 (CHK2): > 10000 nM
selectivity against CHK2 (CHK2; versus CHK1): more than 1,000 fold
inhibition at 1 µM (IRAK 1): > 50%
inhibition at 1 µM (TrKA): > 50%
inhibition (RSK): > 50%
inhibition at 1 µM (Aurora B): > 50%
inhibition (MAP4K): > 50%
inhibition of CHK1 in kinase profiling (CHK1 [1]): marked inhibition
IC50 (CHK1 [2]): 170 ± 5.8 nM
IC50 (CHK1 [3]): 44 ± 10 nM
IC50 (CHK1 [4]): 94 ± 66 nM
further cells accumulating in G2/M ([5]; 0.1μM with SN38 20nM × 24h): 33.8%
reduction of SN38-induced S-phase arrest ([5]; 0.1μM with SN38 20nM × 24h): 42.3%
increase in G1 [5, 19]: 9.6%
loss of G2/M cells [5, 19]: 30%
S' population (S-phase cells not incorporating BrdU) ([5]; 0.5μM for 23h following etoposide, increased from 1.2): 17.7%
effect alone on the cell cycle ([5]; alone, up to 0.5μM × 24h): minimal effects
S'-phase cells ([5]; increasing concentrations with SN38 20nM × 24h, increased from 5): 42.1%
effect alone on the cell cycle ([6]; alone, up to 1μM × 24h): minimal effects
increase in G1 ([6]; with gemcitabine 10nM × 24h): 4.4%
increase in S'-phase ([6]; with gemcitabine 10nM × 24h): 19%
reduction in S-phase ([6]; with gemcitabine 10nM × 24h): 28.8%
AUC0-∞ ([7]; 10mg/kg i.v.): 3.93 μMh
peak plasma concentration ([7]; 10mg/kg i.v., at 5 min): 3.62 µM
AUC0-∞ ([7]; 10mg/kg oral): 2.43 μMh
peak plasma concentration ([7]; 10mg/kg oral): 0.98 µM
clearance ([7]; BALB/c, mouse, in vivo, 10 mg/kg): 103 mL/min/kg
half-life ([7]; BALB/c, mouse, in vivo, iv, 10 mg/kg): 40.2 min
bioavailability [7, 20]: 62%
half-life [7, 20]: 55.2 min
microsomal metabolism [8]: 45%
growth delay (HT29 xenografts; 75mg/kg p.o. added to gemcitabine 100mg/kg i.v.): 11.4 days
antitumor effect alone (HT29 xenografts; 75mg/kg p.o. alone): minimal effect
difference in growth delay, combination versus gemcitabine alone (HT29 xenografts; P<0.001): 9.1 days
body weight loss (HT29 xenografts; combination with gemcitabine): minimal body weight loss
growth delay (HT29 tumors; 150mg/kg p.o. added to irinotecan 25mg/kg i.p.): 13.5 days
growth delay (HT29 tumors; 150mg/kg p.o. alone): 0.3 days
nadir of body weight loss (HT29 tumors; combination with irinotecan, day 10): 1.3%
antitumor activity combined with gemcitabine (SW620 xenografts): Modest activity
tolerability ([9]; TH-MYCN mice, 100mg/kg p.o. × 7 days): well tolerated with no drug-related morbidity
effect on tumor versus vehicle treated controls (final tumor weight) ([9]; TH-MYCN neuroblastoma, 100mg/kg p.o. × 7 days, P<0.001): significant tumor shrinkage
tumor volume reduction by MRI ([9]; TH-MYCN neuroblastoma, 100mg/kg p.o. × 7 days, one example tumor): 79%
post-treatment tumor volume (MRI) ([9]; TH-MYCN neuroblastoma, 100mg/kg p.o. × 7days, pre-treatment 1960mm^3): 417 mm^3
effect on gemcitabine induced S296 CHK1 autophosphorylation in vivo [10]: significantly decreased
selectivity against CDK1 (CDK1 [11]): more than 1,000 fold
therapeutic window (ratio of MIA and GI50) (CHK1 [12]): 21 fold
Potentiation Index (PI) (HT29 [13]; 5FU): 2.2±0.2 (n=3)
Potentiation Index (PI) (HT29 [13]; 5FdU): 9.6±1.2 (n=3)
Potentiation Index (PI) (HT29 [13]; CDDP): 1.8±0.32 (n=3)
Potentiation Index (PI) (HT29 [13]; Etop): 1.9±0.63 (n=4)
Potentiation Index (PI) (HT29 [13]; Gem): 8.5±1.6 (n=4)
Potentiation Index (PI) (HT29 [13]; IR +1h): 3.0±0.67 (n=4)
Potentiation Index (PI) (HT29 [13]; IR −1h): 3.9±0.32 (n=4)
Potentiation Index (PI) (HT29 [13]; SN38, SRB GI50 / Combination GI50): 1.9±0.14 (n=4)
Potentiation Index (PI) (SW620 [14]; 5FU): 4.9±0.8 (n=3)
Potentiation Index (PI) (SW620 [14]; 5FdU): 47±14 (n=3)
Potentiation Index (PI) (SW620 [14]; CDDP): 4.2±0.87 (n=3)
Potentiation Index (PI) (SW620 [14]; Etop): 4.9±2.2 (n=3)
Potentiation Index (PI) (SW620 [14]; Gem): 12.2±2.7 (n=5)
Potentiation Index (PI) (SW620 [14]; IR +1h): 4.9±1.6 (n=4)
Potentiation Index (PI) (SW620 [14]; IR −1h): 4.5±1.2 (n=4)
Potentiation Index (PI) (SW620 [14]; SN38): 2.6±0.6 (n=3)
Potentiation Index (PI) (Calu6; Gem): 5.6±0.96 (n=3)
Potentiation Index (PI) (Calu6; SN38): 1.4±0.24 (n=3)
GI50 (HT29 [15]): 620 ± 230 nM
GI50 (SW620 [16]): 3000 ± 1200 nM
GI50 [17]: 330 to 3000 nM
IC50 (recombinant human CHK1): 8 nM
IC50 (CDK1 [18]): > 10000 nM
